Broadly, the GI50 is the concentration at which growth is held to half of that of the control. In general, TGI refers to the concentration at which net growth stops. A low value points to greater sensitivity of the cells.

This is an account of results in PubChem BioAssay (NCI).

Test systems include 786-0 renal; HL-60(TB) leukemia; HOP-62 NSCLC; MALME-3M melanoma; NCI-H522 lung; OVCAR-3 ovarian; SK-MEL-5 melanoma; SK-OV-3 ovarian; SR leukemia; UACC-62 melanoma.
What all share (test): DTP human tumour cell line panel, 48 h

Values joined by “and” are separate entries in the source; they are usually repeats but may differ in a detail not shown here. Equal values may be shown once.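 96-well plates; 48 h exposure; 5 concentrations. Endpoints by linear interpolation between flanking doses. Not reached: highest tested concentration assigned. Here, GI50 denotes the concentration required for 50% inhibition of growth. TGI marks complete inhibition of growth.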 A value given as a limit tells only on which side of the number the result lay.

For the molecule `Cn1c(=O)c2c(ncn2CC(=O)Nc2ccc(-c3ccccc3)nn2)n(C)c1=O`, the GI50 in the assay on 786-0 renal was over 100 µM; with HL-60(TB) leukemia it was 49.9 µM; with HOP-62 NSCLC, over 100 µM; in the assay with MALME-3M melanoma it was over 100 µM; in the assay with NCI-H522 lung, over 100 µM; with OVCAR-3 ovarian it was over 100 µM. The GI50 in the assay with SK-MEL-5 melanoma is 62.6 µM; with SK-OV-3 ovarian it was over 100 µM; in the assay with SR leukemia it was 42.9 µM; in the assay on UACC-62 melanoma it was 84.7 µM. Further, the TGI in the assay with 786-0 renal, in the assay on HL-60(TB) leukemia, with HOP-62 NSCLC, with MALME-3M melanoma, in the assay with NCI-H522 lung and in the assay with OVCAR-3 ovarian was over 100 µM throughout. Further, the TGI in the assay on SK-MEL-5 melanoma, in the assay on SK-OV-3 ovarian, in the assay with SR leukemia and in the assay on UACC-62 melanoma was over 100 µM throughout.

With `CCCCc1c2c(nc3c1CCC/C3=C\c1ccccc1)/C(=C/c1ccccc1)CCC2`, the total growth inhibition concentration (TGI) in the assay with 786-0 renal, in the assay with HL-60(TB) leukemia, in the assay on HOP-62 NSCLC, with MALME-3M melanoma, in the assay with NCI-H522 lung and with OVCAR-3 ovarian was over 100 µM throughout. Besides, the TGI in the assay with SK-MEL-5 melanoma, in the assay on SK-OV-3 ovarian, in the assay on SR leukemia and with UACC-62 melanoma was over 100 µM each time.

Turning to `CC[C@@]1(O)C(=O)OCc2c1cc1n(c2=O)Cc2c-1nc1cc(F)c(C)c3c1c2[C@@H](N)CC3`, the GI50 in the assay on 786-0 renal is under 0.01 µM; in the assay with HL-60(TB) leukemia it was under 0.01 µM; with HOP-62 NSCLC it was under 0.01 µM; with MALME-3M melanoma, under 0.014 µM; in the assay with NCI-H522 lung, under 0.01 µM; with OVCAR-3 ovarian, 0.0339 µM. The GI50 in the assay with SK-MEL-5 melanoma, in the assay on SK-OV-3 ovarian, in the assay with SR leukemia and in the assay on UACC-62 melanoma was under 0.01 µM throughout. The TGI turned out to be 0.159 µM in the assay with HOP-62 NSCLC; 0.281 µM with MALME-3M melanoma; 0.531 µM with NCI-H522 lung; 0.907 µM in the assay with OVCAR-3 ovarian; 0.0203 µM in the assay on SK-MEL-5 melanoma; 1.41 µM with SK-OV-3 ovarian. The TGI in the assay with SR leukemia was over 100 µM; in the assay on UACC-62 melanoma it was 0.0208 µM.

As to `Nc1nc(N)nc(CCCc2nc(N)nc(N)n2)n1`, the TGI with 786-0 renal, in the assay on HL-60(TB) leukemia, with HOP-62 NSCLC, with MALME-3M melanoma, in the assay on NCI-H522 lung and in the assay on OVCAR-3 ovarian was over 100 µM throughout. Further, the TGI in the assay on SK-MEL-5 melanoma, with SK-OV-3 ovarian, in the assay with SR leukemia and in the assay with UACC-62 melanoma was over 100 µM throughout.

Consider `Cc1ncc([N+](=O)[O-])n1CCNS(=O)(=O)CCCn1ncnc1[N+](=O)[O-]`, for which the TGI in the assay with 786-0 renal, with HL-60(TB) leukemia, with HOP-62 NSCLC, with MALME-3M melanoma, with NCI-H522 lung and with OVCAR-3 ovarian was over 100 µM throughout. Also, the total growth inhibition concentration (TGI) with SK-MEL-5 melanoma, in the assay on SK-OV-3 ovarian, in the assay on SR leukemia and in the assay on UACC-62 melanoma was over 100 µM throughout.

With `CC(C(=O)n1c2ccccc2c2ccccc21)N(c1ccccc1)c1ccccc1` (stereo not drawn), the total growth inhibition concentration (TGI) came out at 30.2 µM with 786-0 renal; 20.6 µM with HL-60(TB) leukemia; 32 µM with HOP-62 NSCLC; 28.5 µM in the assay with MALME-3M melanoma; 6.48 µM in the assay with NCI-H522 lung; 31.7 µM in the assay on OVCAR-3 ovarian. Also, the TGI in the assay with SK-MEL-5 melanoma turned out to be 35.1 µM; in the assay on SK-OV-3 ovarian it was 36.2 µM; with SR leukemia, 27.7 µM; in the assay with UACC-62 melanoma it was 31.7 µM.

Consider `CN1CCN(c2ccc(Nc3ncc4cc(C#N)c(=O)n(C5CCCC5)c4n3)cc2)CC1`, for which the GI50 was 0.693 µM in the assay on 786-0 renal; 0.595 µM with HL-60(TB) leukemia; 2.19 µM in the assay on HOP-62 NSCLC; 1.9 µM in the assay on MALME-3M melanoma; 4.29 µM in the assay with NCI-H522 lung; 2.94 µM in the assay on OVCAR-3 ovarian. Moreover, the GI50 is 3.17 µM in the assay on SK-MEL-5 melanoma, 4.41 µM in the assay with SK-OV-3 ovarian, 0.661 µM in the assay with SR leukemia and 4 µM in the assay on UACC-62 melanoma. Besides, the TGI in the assay with 786-0 renal was 4.11 µM; in the assay on HL-60(TB) leukemia, 4.2 µM; in the assay on HOP-62 NSCLC, over 25.5 µM; in the assay on MALME-3M melanoma it was over 100 µM; in the assay on NCI-H522 lung, over 100 µM; with OVCAR-3 ovarian, over 24.2 µM. Also, the TGI in the assay with SK-MEL-5 melanoma is over 100 µM; with SK-OV-3 ovarian, over 100 µM; in the assay on SR leukemia, 3.86 µM; with UACC-62 melanoma, over 100 µM.

As to `O=C(O)CSc1n[nH]c(Cc2ccccc2)n1`, the concentration for total growth inhibition (TGI) in the assay on 786-0 renal, in the assay with HL-60(TB) leukemia, with HOP-62 NSCLC, with MALME-3M melanoma, in the assay with NCI-H522 lung and in the assay with OVCAR-3 ovarian was over 100 µM in each case. In addition, the TGI with SK-MEL-5 melanoma, in the assay with SK-OV-3 ovarian, with SR leukemia and with UACC-62 melanoma was over 100 µM each time.

In the case of `CCCCCCCCCCCCOC1C(C(CC(=O)NCCN2CCCC2)NS(=O)(=O)c2cc(Cl)cc(Cl)c2)OC2OC(C)(C)OC21` (stereo not drawn), the GI50 with 786-0 renal was 1.68 µM; in the assay on HL-60(TB) leukemia, 1.64 µM; in the assay with HOP-62 NSCLC, 1.74 µM; in the assay on MALME-3M melanoma, 1.89 µM; in the assay on NCI-H522 lung, 2.11 µM; in the assay on OVCAR-3 ovarian, 1.87 µM. The GI50 is 1.81 µM in the assay with SK-MEL-5 melanoma; 2.08 µM and 1.32 µM in the assay with SK-OV-3 ovarian; 1.48 µM in the assay with SR leukemia; 1.85 µM with UACC-62 melanoma. Moreover, the TGI with 786-0 renal came to 3.27 µM; in the assay with HL-60(TB) leukemia, 3.76 µM; with HOP-62 NSCLC, 3.39 µM; with MALME-3M melanoma, 3.62 µM; in the assay on NCI-H522 lung, 3.98 µM; in the assay on OVCAR-3 ovarian it was 3.72 µM. For the same molecule, the TGI with SK-MEL-5 melanoma was 3.27 µM; in the assay with SK-OV-3 ovarian, 3.79 µM and 2.73 µM; with SR leukemia it was 3.83 µM; in the assay with UACC-62 melanoma, 3.3 µM.

With `COc1ccc2c(Oc3ccc(NC(=O)c4c(C)n(CC(C)(C)O)n(-c5ccccc5)c4=O)nc3)ccnc2c1`, the GI50 is 22.3 µM with 786-0 renal; 14.6 µM in the assay on HL-60(TB) leukemia; 27.8 µM in the assay on HOP-62 NSCLC; 9.06 µM in the assay with MALME-3M melanoma; 6.84 µM in the assay with NCI-H522 lung; 19.5 µM in the assay on OVCAR-3 ovarian. Besides, the GI50 with SK-MEL-5 melanoma is 11.5 µM; in the assay with SK-OV-3 ovarian, 6.06 µM; with SR leukemia, 8.57 µM; in the assay on UACC-62 melanoma it was 6.14 µM. Moreover, the TGI with 786-0 renal is over 100 µM; with HL-60(TB) leukemia, over 62.3 µM; in the assay with HOP-62 NSCLC, over 100 µM; in the assay with MALME-3M melanoma, 51.1 µM; in the assay on NCI-H522 lung, 26.7 µM; in the assay with OVCAR-3 ovarian, 70.6 µM. For the same molecule, the TGI in the assay with SK-MEL-5 melanoma was over 68.1 µM; with SK-OV-3 ovarian it was over 80.8 µM; in the assay with SR leukemia it was over 100 µM; with UACC-62 melanoma, 42.2 µM.

Consider `O=c1[nH]c(=O)n([C@H]2CCCO2)cc1F`, for which the GI50 is 1780 µM in the assay with 786-0 renal; 1030 µM in the assay on HL-60(TB) leukemia; 2340 µM with HOP-62 NSCLC; 1360 µM with MALME-3M melanoma; over 2650 µM in the assay on NCI-H522 lung; 1650 µM with OVCAR-3 ovarian. For the same molecule, the GI50 is 429 µM with SK-MEL-5 melanoma, over 3620 µM in the assay on SK-OV-3 ovarian, 473 µM with SR leukemia and 2040 µM with UACC-62 melanoma. Besides, the TGI in the assay on 786-0 renal is over 5000 µM; with HL-60(TB) leukemia, over 5000 µM; in the assay on HOP-62 NSCLC, 994 µM and > 4660 µM; with MALME-3M melanoma it was over 5000 µM; in the assay with NCI-H522 lung it was over 5000 µM; in the assay with OVCAR-3 ovarian it was over 5000 µM. Further, the TGI in the assay on SK-MEL-5 melanoma is over 2600 µM; in the assay with SK-OV-3 ovarian, 984 µM and > 5000 µM; with SR leukemia, over 2360 µM; with UACC-62 melanoma it was over 5000 µM.

As to `CC(=O)OCCOCNC(=S)N/N=C/c1ccc(Br)s1`, the TGI with 786-0 renal was over 100 µM; with HL-60(TB) leukemia, over 40.2 µM; with HOP-62 NSCLC it was over 100 µM; in the assay with MALME-3M melanoma, over 100 µM; with NCI-H522 lung, over 100 µM; with OVCAR-3 ovarian, over 100 µM. Also, the TGI with SK-MEL-5 melanoma, in the assay with SK-OV-3 ovarian, with SR leukemia and in the assay with UACC-62 melanoma was over 100 µM each time.

`O=C(NO)c1ccc(CN(c2cnccn2)c2cnccn2)cc1`: the GI50 in the assay with 786-0 renal is 15.7 µM; in the assay with HL-60(TB) leukemia it was 26.6 µM; in the assay with HOP-62 NSCLC it was 15.4 µM; in the assay on MALME-3M melanoma, 7.9 µM; in the assay on NCI-H522 lung, 4.19 µM; in the assay on OVCAR-3 ovarian, 11.7 µM. Besides, the GI50 is 13.1 µM in the assay on SK-MEL-5 melanoma, 14.6 µM in the assay with SK-OV-3 ovarian, 6.22 µM in the assay with SR leukemia and 6.71 µM in the assay with UACC-62 melanoma. Besides, the TGI came to 35 µM in the assay on 786-0 renal; 82.7 µM in the assay on HL-60(TB) leukemia; 34.8 µM in the assay on HOP-62 NSCLC; 23.8 µM with MALME-3M melanoma; 18 µM with NCI-H522 lung; 30 µM in the assay on OVCAR-3 ovarian. In addition, the concentration for total growth inhibition (TGI) is 26.1 µM with SK-MEL-5 melanoma, 29.5 µM with SK-OV-3 ovarian, over 100 µM in the assay with SR leukemia and 28.5 µM in the assay on UACC-62 melanoma.
